Experimental data published in the CheMixHub ionic liquid set.

Test: xn = mol fraction of the nth substance listed

NCCN1CCNCC1 + CC(=O)[O-].CCCC[n+]1ccn(C)c1 + O
viscosity [mPa·s], 101 kPa
Details | 298.15 K | 303.15 K | 308.15 K | 313.15 K | 318.15 K | 323.15 K | 328.15 K | 333.15 K
x2 = 0.03479, x1 = 0.0177 | 3.7 | 3.32 | 3.04 | 2.97 | 2.6 | 2.31 | 2.16 | 1.97
x2 = 0.03897, x1 = 0.01333 | 3.73 | 3.62 | 3.32 | 2.99 | 2.61 | 2.41 | 2.31 | 2.11
x2 = 0.04311, x1 = 0.00893 | 3.76 | 3.66 | 3.32 | 3.02 | 2.64 | 2.48 | 2.34 | 2.21

CCCC[n+]1ccccc1.F[B-](F)(F)F + O
Details | electrical conductivity [S/m] | viscosity [mPa·s]
283.15 K, 101.3 kPa, x2 = 0.263 | – | 84
283.15 K, 101.3 kPa, x2 = 0.637 | – | 15.85
283.15 K, 101.3 kPa, x2 = 0.724 | – | 10.78
288.15 K, 101.3 kPa, x2 = 0.11 | – | 153.8
288.15 K, 101.3 kPa, x2 = 0.391 | – | 35.82
288.15 K, 101.3 kPa, x2 = 0.637 | – | 13.01
298.15 K, 101 kPa, x1 = 0.000191 | 0.096 | –
298.15 K, 101 kPa, x1 = 0.0004053 | 0.191 | –
298.15 K, 101 kPa, x1 = 0.0005259 | 0.247 | –
298.15 K, 101 kPa, x1 = 0.0007203 | 0.33 | –
298.15 K, 101 kPa, x1 = 0.0008354 | 0.365 | –
298.15 K, 101 kPa, x1 = 0.0009829 | 0.44 | –
298.15 K, 101 kPa, x1 = 0.001125 | 0.486 | –
298.15 K, 101 kPa, x1 = 0.001254 | 0.542 | –
298.15 K, 101 kPa, x1 = 0.001434 | 0.6 | –
298.15 K, 101 kPa, x1 = 0.001585 | 0.659 | –
298.15 K, 101 kPa, x1 = 0.001811 | 0.743 | –
298.15 K, 101 kPa, x1 = 0.001984 | 0.819 | –
298.15 K, 101 kPa, x1 = 0.002073 | 0.846 | –
298.15 K, 101 kPa, x1 = 0.002208 | 0.889 | –
298.15 K, 101 kPa, x1 = 0.002434 | 0.962 | –
298.15 K, 101 kPa, x1 = 0.002597 | 1.02 | –
298.15 K, 101 kPa, x1 = 0.002828 | 1.09 | –
298.15 K, 101 kPa, x1 = 0.002875 | 1.11 | –
298.15 K, 101 kPa, x1 = 0.003074 | 1.17 | –
298.15 K, 101 kPa, x1 = 0.003174 | 1.2 | –
298.15 K, 101.3 kPa, x2 = 0.724 | – | 6.55
303.15 K, 101.3 kPa, x2 = 0.11 | – | 67.1
303.15 K, 101.3 kPa, x2 = 0.549 | – | 11.1
313.15 K, 101.3 kPa, x2 = 0.549 | – | 8.32
313.15 K, 101.3 kPa, x2 = 0.724 | – | 4.34
328.15 K, 101.3 kPa, x2 = 0.11 | – | 24.88
328.15 K, 101.3 kPa, x2 = 0.724 | – | 3.11
333.15 K, 101.3 kPa, x2 = 0.414 | – | 7.99
338.15 K, 101.3 kPa, x2 = 0.637 | – | 3.52
343.15 K, 101.3 kPa, x2 = 0.11 | – | 15.89
343.15 K, 101.3 kPa, x2 = 0.263 | – | 9.35
343.15 K, 101.3 kPa, x2 = 0.391 | – | 6.91
348.15 K, 101.3 kPa, x2 = 0 | – | 18.45

c1c[nH]cn1 + CCCCCC[N+]1(C)CCCC1.O=S(=O)([N-]S(=O)(=O)C(F)(F)F)C(F)(F)F
101.33 kPa, x2 = 0.5
Details | viscosity [mPa·s]
343.15 K | 11
353.15 K | 8

C[N+](C)(C)CCC[n+]1ccccc1.N#C[N-]C#N.N#C[N-]C#N + CC#N
100 kPa
Details | viscosity [mPa·s]
283.15 K, x1 = 0.7001 | 857
288.15 K, x1 = 0.8997 | 1336
288.15 K, x1 = 1 | 3879
293.15 K, x1 = 0.1999 | 10.8
293.15 K, x1 = 0.3997 | 75.8
293.15 K, x1 = 1 | 2191
298.15 K, x1 = 0.8997 | 561
303.15 K, x1 = 0.0999 | 3
303.15 K, x1 = 0.2998 | 24.3
303.15 K, x1 = 0.7998 | 271
308.15 K, x1 = 0.1999 | 7.71
318.15 K, x1 = 0.2998 | 16
323.15 K, x1 = 0.0999 | 2.43
323.15 K, x1 = 1 | 210
333.15 K, x1 = 0.1999 | 5.08
333.15 K, x1 = 0.6002 | 37.6

NC(=O)C(F)(F)F + C[P+](c1ccccc1)(c1ccccc1)c1ccccc1.[Br-]
288.15 K, 101.3 kPa, x1 = 0.889
Details | electrical conductivity [S/m] | viscosity [mPa·s]
– | 0.035 | 410
